Results published in ChEMBL document CHEMBL5247656, “Discovery of a Potent, Cooperative, and Selective SOS1 PROTAC ZZ151 with In Vivo Antitumor Efficacy in KRAS-Mutant Cancers” (J Med Chem, 2023).
Calls of active or inactive are those of the source. The rule behind the calls is not given here.

Columns and labels:
ASPC1 [1] = assay: In vivo Inhibition of ERK in human ASPC1 cells harboring KRAS G12D mutant xenografted BALB/c nude mouse assessed as inhibition of ERK phosphorylation in tumor at 50 mg/kg, ip administered twice daily for 3 weeks by immunohistochemical analysis; format: functional, organism-based
[2] = Toxicity in BALB/c nude mouse xenografted with human SW620 cells harboring KRAS G12V mutant assessed as body weight loss at 50 mg/kg, ip administered twice daily for 2 weeks; format: organism-based, SW-620; conditions: in vivo, 336 h
SW-620 [3] = assay: Antitumor activity against human SW620 cells harboring KRAS G12V mutant xenografted in BALB/c nude mouse assessed as tumor growth inhibition at 50 mg/kg, ip administered twice daily for 2 weeks relative to control; format: functional; conditions: SW-620, 336 h, read-out: TGI
PANC-1 = assay: Antiproliferative activity against human PANC-1 cells harboring KRAS G12D mutant assessed as inhibition of cell proliferation incubated for 7 days by CellTiterGlo-3D proliferation assay; format: functional, cell-based; conditions: PANC-1, 168 h
SW-620 [4] = assay: Antiproliferative activity against human SW620 cells harboring KRAS G12V mutant assessed as inhibition of cell proliferation incubated for 7 days by CellTiterGlo-3D proliferation assay; format: functional, cell-based; conditions: SW-620, 168 h
SW-620 [5] = assay: In vivo Inhibition of ERK in human SW620 cells harboring KRAS G12V mutant xenografted BALB/c nude mouse assessed as inhibition of ERK phosphorylation in tumor at 50 mg/kg, ip administered twice daily for 2 weeks by immunohistochemistry analysis; format: functional, organism-based
[6] = Toxicity in BALB/c nude mouse xenografted with human ASPC1 cells harboring KRAS G12D mutant assessed as body weight loss at 50 mg/kg, ip administered twice daily for 3 weeks; format: organism-based; conditions: in vivo, 504 h
LoVo = assay: Antiproliferative activity against human LoVo cells harboring KRAS G13D mutant assessed as inhibition of cell proliferation incubated for 7 days by CellTiterGlo-3D proliferation assay; format: functional, cell-based; conditions: 168 h
SW-620 [7] = assay: In vivo Inhibition of ERK in human SW620 cells harboring KRAS G12V mutant xenografted BALB/c nude mouse assessed as inhibition of ERK phosphorylation at 50 mg/kg, ip administered twice daily for 2 weeks by Immunoblot analysis; format: functional, organism-based
NCI-H358 = assay: Antiproliferative activity against human NCI-H358 cells harboring KRAS G12C mutant assessed as inhibition of cell proliferation incubated for 7 days by CellTiterGlo-3D proliferation assay; format: functional, cell-based; conditions: NCI-H358, 168 h
ASPC1 [8] = assay: Antitumor activity against human ASPC1 cells harboring KRAS G12D mutant xenografted in BALB/c nude mouse assessed as tumor growth inhibition at 50 mg/kg, ip administered twice daily for 3 weeks relative to control; format: functional; conditions: ASPC1, 504 h, read-out: TGI
ASPC1 [9] = assay: Antiproliferative activity against human ASPC1 cells harboring KRAS G12D mutant assessed as inhibition of cell proliferation incubated for 7 days by CellTiterGlo-3D proliferation assay; format: functional, cell-based; conditions: ASPC1, 168 h
A549 = assay: Antiproliferative activity against human A549 cells harboring KRAS G12S mutant assessed as inhibition of cell proliferation incubated for 7 days by CellTiterGlo-3D proliferation assay; format: functional, cell-based; conditions: A549, 168 h
MIA PaCa-2 = assay: Antiproliferative activity against human MIA PaCa-2 cells harboring KRAS G12C mutant assessed as inhibition of cell proliferation incubated for 7 days by CellTiterGlo-3D proliferation assay; format: functional, cell-based; conditions: MIA PaCa-2, 168 h
ASPC1 [10] = assay: In vivo Inhibition of ERK in human ASPC1 cells harboring KRAS G12D mutant xenografted BALB/c nude mouse assessed as inhibition of ERK phosphorylation at 50 mg/kg, ip administered twice daily for 3 weeks by Immunoblot analysis; format: functional, organism-based
[11] = molecular target: T1, von Hippel-Lindau disease tumor suppressor/Son of sevenless homolog 1 (Homo sapiens) (UniProt Q07889+P40337); assay: PROTAC activity at VHL/SOS1 in human NCI-H358 cells harboring KRAS G12C mutant assessed as induction of SOS1 degradation upto 10 uM incubated for 24 hrs by immunoblotting analysis; format: cell-based
[12] = molecular target: T1, von Hippel-Lindau disease tumor suppressor/Son of sevenless homolog 1 (Homo sapiens); assay: PROTAC activity at VHL/SOS1 in human ASPC1 cells harboring KRAS G12D mutant assessed as induction of SOS1 degradation upto 10 uM incubated for 24 hrs by immunoblotting analysis; format: cell-based

T1 sequence (P40337 whole entry, looked up): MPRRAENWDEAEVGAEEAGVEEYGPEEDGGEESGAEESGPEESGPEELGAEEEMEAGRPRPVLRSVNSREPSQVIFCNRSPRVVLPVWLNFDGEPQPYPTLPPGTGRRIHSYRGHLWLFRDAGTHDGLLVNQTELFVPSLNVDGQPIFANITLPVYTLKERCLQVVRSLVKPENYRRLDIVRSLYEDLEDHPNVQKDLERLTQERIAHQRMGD
T1 sequence (Q07889 whole entry, looked up): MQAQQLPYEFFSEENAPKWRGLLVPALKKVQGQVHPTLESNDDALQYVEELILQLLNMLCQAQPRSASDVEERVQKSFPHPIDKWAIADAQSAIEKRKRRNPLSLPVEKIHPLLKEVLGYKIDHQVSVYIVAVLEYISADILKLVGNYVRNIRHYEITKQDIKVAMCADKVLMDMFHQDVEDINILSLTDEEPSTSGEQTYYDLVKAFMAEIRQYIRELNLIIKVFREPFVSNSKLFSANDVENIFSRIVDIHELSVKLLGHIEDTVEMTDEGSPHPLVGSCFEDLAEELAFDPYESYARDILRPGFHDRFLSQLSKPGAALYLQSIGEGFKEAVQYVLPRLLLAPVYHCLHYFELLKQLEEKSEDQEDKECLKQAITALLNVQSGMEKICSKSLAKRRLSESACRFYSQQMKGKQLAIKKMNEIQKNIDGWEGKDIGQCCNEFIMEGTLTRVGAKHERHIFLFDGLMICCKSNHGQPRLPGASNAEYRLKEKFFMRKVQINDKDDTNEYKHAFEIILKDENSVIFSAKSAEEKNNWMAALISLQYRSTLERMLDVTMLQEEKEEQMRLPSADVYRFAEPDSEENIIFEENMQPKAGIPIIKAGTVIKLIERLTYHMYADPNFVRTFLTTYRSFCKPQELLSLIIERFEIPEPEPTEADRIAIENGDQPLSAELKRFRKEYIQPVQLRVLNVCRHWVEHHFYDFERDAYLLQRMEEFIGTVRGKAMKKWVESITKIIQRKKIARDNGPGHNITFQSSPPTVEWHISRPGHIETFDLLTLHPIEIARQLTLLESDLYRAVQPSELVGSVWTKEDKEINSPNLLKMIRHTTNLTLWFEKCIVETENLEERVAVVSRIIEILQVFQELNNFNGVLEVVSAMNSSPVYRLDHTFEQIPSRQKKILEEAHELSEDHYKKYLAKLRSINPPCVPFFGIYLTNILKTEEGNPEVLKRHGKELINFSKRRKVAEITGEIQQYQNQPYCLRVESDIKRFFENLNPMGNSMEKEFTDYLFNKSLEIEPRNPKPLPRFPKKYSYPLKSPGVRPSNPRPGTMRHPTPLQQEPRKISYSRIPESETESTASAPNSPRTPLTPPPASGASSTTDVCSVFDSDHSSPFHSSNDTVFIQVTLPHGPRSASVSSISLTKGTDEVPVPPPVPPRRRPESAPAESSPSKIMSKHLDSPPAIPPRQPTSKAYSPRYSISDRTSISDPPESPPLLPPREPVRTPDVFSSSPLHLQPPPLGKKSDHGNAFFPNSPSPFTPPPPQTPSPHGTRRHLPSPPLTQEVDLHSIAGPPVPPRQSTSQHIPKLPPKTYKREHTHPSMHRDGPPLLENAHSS

Compound	inhibition (ASPC1 [1])	Activity [2]	inhibition in vivo at 50 mg/kg (SW-620 [3])	IC50 (PANC-1)	IC50 (SW-620 [4])	inhibition (SW-620 [5])	Activity [6]	IC50 (LoVo)	inhibition (SW-620 [7])	IC50 (NCI-H358)	inhibition in vivo at 50 mg/kg (ASPC1 [8])	IC50 (ASPC1 [9])	IC50 (A549)	IC50 (MIA PaCa-2)	inhibition (ASPC1 [10])	Activity [11]	Activity [12]
COc1cc2nc(C)nc(N[C@H](C)c3cc(N)cc(C(F)(F)F)c3)c2cc1O[C@H]1CCOC1	Active	Non-Toxic	61.4%	17.8 nM	30.1 nM	Active	Non-Toxic	142 nM	Active	16.5 nM	43.6%	64.4 nM	263 nM	24.8 nM	Active	–	–
COc1cc2nc(C)nc(N[C@H](C)c3cc(N)cc(C(F)(F)F)c3)c2cc1C1CCN(C(=O)CCCCCC(=O)N[C@H](C(=O)N2C[C@@H](O)C[C@H]2C(=O)N[C@@H](C)c2ccc(-c3scnc3C)cc2)C(C)(C)C)CC1	–	–	–	188 nM	303 nM	–	–	> 1000 nM	–	457 nM	–	302 nM	731 nM	957 nM	–	inactive	inactive
